Here are results for 1 molecule from US20060246436A1 (priority 2002, published 2006).

Series [1] relates to peripheral blood cells positive for Ph chromosome. The note with it: of 18 CML patients; after five months of imatinib treatment. The text has this:
The remaining four were reserved to test the predictive scoring system later. Of the 22, two “learning” cases (the cases used for the construction of the prediction system described later) were in blast crisis phase and two “test” cases (the cases used for testing the correctness of the prediction system described later) were in accelerated phase.

The test system of series [2] is Ph chromosome-positive leukemia cells. The note with it: cited from earlier work.

Consider `Cc1ccc(NC(=O)c2ccc(CN3CCN(C)CC3)cc2)cc1Nc1nccc(-c2cccnc2)n1` [imatinib, 4-(4-methylpiperazin-1-ylmethyl)-N-[4-methyl-3-(4-pyridin-3-ylpyrimidin-2-ylamino)phenyl]benzamide], for which the “patients with more than 65% of cells still positive for the Ph chromosome, non-responders” value in series [1] is on record as “six”. In series [2] (CML patients), the adverse effects entry was “without severe adverse effects” and the “patients in whom Ph chromosome-positive leukemia cells are completely or partially reduced” value is reported as “more than 60%”. Further, the “CML patients induced into hematological complete remission” value in series [2] is listed as “around 90%”.
